Data reported in article PMC7251097, “Aspartate/asparagine-β-hydroxylase: a high-throughput mass spectrometric assay for discovery of small molecule inhibitors” (Scientific Reports, 2020).
Structures can show the parent of a compound that is named as a salt. Where two headings read alike, the source gives them in different places.

Target: T1, His6-AspH315–758 (human aspartate/asparagine-β-hydroxylase, AspH) (Homo sapiens, UniProt Q12797)
T1 construct: N-Terminally His6-tagged human AspH315–758 (His6-AspH315–758) was produced in E. coli BL21 (DE3) cells; made in house; host or cells: E. coli BL21 (DE3), pET-28a(+) vector
T1 sequence (Q12797 315-758): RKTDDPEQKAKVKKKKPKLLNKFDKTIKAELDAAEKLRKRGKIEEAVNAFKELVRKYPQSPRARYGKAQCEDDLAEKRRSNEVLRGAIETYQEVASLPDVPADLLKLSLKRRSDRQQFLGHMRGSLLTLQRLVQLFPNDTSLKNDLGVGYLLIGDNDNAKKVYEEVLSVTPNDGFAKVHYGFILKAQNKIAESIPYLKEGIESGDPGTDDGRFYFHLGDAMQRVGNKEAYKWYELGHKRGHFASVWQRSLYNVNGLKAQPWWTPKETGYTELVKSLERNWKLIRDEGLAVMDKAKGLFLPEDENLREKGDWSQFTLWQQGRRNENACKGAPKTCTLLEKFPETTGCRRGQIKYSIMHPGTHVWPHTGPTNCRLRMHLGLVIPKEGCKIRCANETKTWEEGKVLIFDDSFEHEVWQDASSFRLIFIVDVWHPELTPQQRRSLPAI
Experiment: SPE-MS AspH inhibition assay (LOPAC screen at fixed 20 μM and IC50 dose-response), hydroxylation of cyclic peptide hFX-CP101–119
Assay type: biochemical
Conditions: for inhibition at 20 µM: read-out: Plate 2 (% inhibition)

[1] = LOPAC Plate 4, compound at 20 uM, substrate conversion
[2] = LOPAC compound at 20uM, plate 2, conversion of substrate peptide
[3] = LOPAC compound at 20uM, plate 2, normalised to DMSO and 2,4-PDCA controls
[4] = LOPAC compound at 20uM, plate 3, conversion of substrate peptide

CN1C2CCCC1CC(NC(=O)c1nn(C)c3ccccc13)C2 (stereo not drawn) [Granisetron hydrochloride]
% conversion [1]: 34.30%

N=C(N)N/N=C/c1c(Cl)cccc1Cl [Guanabenz acetate]
Plate 2 (% conversion) [2]: 34.67%
inhibition at 20 µM [3]: 3.85%

CNCCNS(=O)(=O)c1cccc2cnccc12.Cl.Cl [H-8 dihydrochloride]
Plate 3 (% conversion) [4]: 37.53%

CCCCC#Cc1nc(NC)c2ncn([C@@H]3O[C@H](CO)[C@@H](O)[C@H]3O)c2n1 [HEMADO]
Plate 1 (% inhibition) (LOPAC compound at fixed 20 uM, plate 1, normalised to DMSO and 2,4-PDCA controls): 20.82%
Plate 1 (% conversion) (LOPAC compound at fixed 20 uM, substrate conversion, plate 1): 28.88%

Cc1nccc2c1[nH]c1ccccc12 [Harmane]
Plate 2 (% conversion): 35.31%
inhibition at 20 µM: 1.92%

C[N+](C)(C)CCCCCC[N+](C)(C)C [Hexamethonium bromide]
Plate 2 (% conversion): 40.56%
inhibition at 20 µM: -13.8%

C[N+](C)(C)CCCCCC[N+](C)(C)C.[Cl-].[Cl-] [Hexamethonium dichloride]
Plate 2 (% conversion): 37.53%
Plate 2 (% inhibition) (20 µM): -4.72%

O=c1cc(O)cc(/C=C/c2ccc(O)c(O)c2)o1 [Hispidin, reference compound]
Plate 2 (% conversion) [2]: 3.05%
inhibition at 20 µM [3]: 98.3%

NCCc1c[nH]cn1 [Histamine dihydrochloride]
Plate 2 (% conversion) [2]: 39.28%
inhibition at 20 µM [3]: -9.92%

NNc1nncc2ccccc12 [Hydralazine hydrochloride]
Plate 2 (% conversion) [2]: 38.20%
inhibition at 20 µM [3]: -6.7%

NS(=O)(=O)c1cc2c(cc1Cl)NCNS2(=O)=O [Hydrochlorothiazide]
Plate 2 (% conversion) [2]: 36.43%
inhibition at 20 µM [3]: -1.41%

C[C@]12CCC(=O)C=C1CC[C@@H]1[C@@H]2[C@@H](O)C[C@@]2(C)[C@H]1CC[C@]2(O)C(=O)CO [Hydrocortisone]
Plate 2 (% conversion) [2]: 37.93%
inhibition at 20 µM [3]: -5.89%

Cl.NO [Hydroxylamine hydrochloride]
Plate 2 (% conversion) [2]: 39.20%
Plate 2 (% inhibition) [3]: -9.70%

NC(=O)NO [Hydroxyurea]
Plate 2 (% conversion) [2]: 37.94%
Plate 2 (% inhibition) [3]: -5.92%

CNC(=O)[C@H]1O[C@@H](n2cnc3c(NCc4cccc(I)c4)ncnc32)[C@H](O)[C@@H]1O [IB-MECA]
Plate 3 (% conversion) [4]: 35.04%

COc1cc(OC)c(C=C2C(O)=Nc3ccccc32)c(OC)c1 [IC 261]
% conversion: 29.42%

CCCn1c(=O)c(C)cn2nc(N)nc12 [ICI 63,137]
% conversion: 30.53%

Cl.Fc1ccc(CN(C2=NCCN2)c2c(Cl)cccc2Cl)cc1 [IMID-4F hydrochloride]
Plate 2 (% conversion) [2]: 39.35%
Plate 2 (% inhibition) [3]: -10.13%

COc1ccc(/C=C2\COc3ccc(C)cc3C2=O)cc1O [IMS2186]
% conversion [1]: 32.74%

Oc1ccc2ccccc2c1SSc1c(O)ccc2ccccc12 [IPA-3, reference compound]
Inhibition at 20 µM [%] (AspH activity, fixed compound concentration 20 μM, initial LOPAC screen, 0.5%v/v DMSO): 100.0%
% conversion [1]: 2.34%

O=C(Nc1nc2ccccc2n1CCN1CCOCC1)c1cccc([N+](=O)[O-])c1 [IRAK-1/4 Inhibitor I]
% inhibition (LOPAC Plate 4, compound at 20 uM): -1.55%
% conversion [1]: 37.00%

CCCCCN(C)CCC(O)(P(=O)([O-])O)P(=O)(O)O.[Na+] [Ibandronate sodium]
% conversion [1]: 30.05%

CC(C)C(=O)c1c(C(C)C)nn2ccccc12 [Ibudilast]
Plate 2 (% conversion) [2]: 39.05%
inhibition at 20 µM [3]: -9.26%

CC(=O)[C@]1(O)Cc2c(O)c3c(c(O)c2[C@@H](O[C@H]2C[C@H](N)[C@H](O)[C@H](C)O2)C1)C(=O)c1ccccc1C3=O [Idarubicin]
Plate 2 (% conversion) [2]: 34.69%
inhibition at 20 µM [3]: 3.78%

c1ccc2c(c1)OCC(C1=NCCN1)O2 (stereo not drawn) [Idazoxan hydrochloride]
Plate 3 (% conversion) [4]: 39.66%

CC(C(O)c1ccc(O)cc1)N1CCC(Cc2ccccc2)CC1.CC(C(O)c1ccc(O)cc1)N1CCC(Cc2ccccc2)CC1.O=C(O)C(O)C(O)C(=O)O (stereo not drawn) [Ifenprodil tartrate]
Plate 3 (% conversion) [4]: 17.74%

O=C1CCC(c2ccc(-n3ccnc3)cc2)=NN1 [Imazodan]
Plate 2 (% conversion) [2]: 38.21%
inhibition at 20 µM [3]: -6.74%

N=C(N)SCCc1cnc[nH]1 [Imetit dihydrobromide]
Plate 3 (% conversion): 29.48%

Cl.O=C(O)Cc1c[nH]cn1 [Imidazole-4-acetic acid hydrochloride]
Plate 2 (% conversion): 36.46%
Plate 2 (% inhibition) (20 µM): -1.52%
